What is called solubility is how much of the substance goes into solution per volume. Lower therefore signals a poorly soluble substance.

“Also recorded” adds a separate entry of the source.

What all share (type): physicochemical
Data set [1] can be described thus: Interconversion at high temperature (final form identified by DSC). To be noted: for Final form (DSC peak): dried at 80±5° C. in non-vacuum state, then cooled to 30±5° C., methanesulfonate; for Stability at high temperature: summary of Table 5. On the procedure:
2) Measurement of Interconversion at High Temperature
In order to determine the interconversion of crystalline forms at a high temperature, each of Crystalline Forms 1 and 5 was dried at 80±5° C. in non-vacuum state, and then cooled to a temperature of 30±5° C. DSC analysis was performed for the obtained samples to identify the final crystalline form.
(DSC measures the heat that a sample takes up or gives off during a temperature scan.)

Data set [2] can be described thus: Stability under physical stimulus (multi-milling, manual grinding, humidification; final form identified by DSC). To be noted: methanesulfonate; for Stability under physical stimulus: milling, grinding and humidification (summary of Table 6). On the procedure:
3) Measurement of Stability Under Physical Stimulus
Multi-milling, manual grinding and humidification test were performed for the crystalline forms of the present invention to confirm their stability under physical stimulus. For multi-milling test, each of Crystalline Forms 1 and 5 was milled at 3,000 rpm by using a prototype multi-mill instrument (Sreenex Machines Pvt. Ltd.). For manual grinding, each of the crystalline forms was gradually ground by using a pestle and mortar. In the humidification test, Crystalline Forms 1 and 5 were stored at 30° C. and 90% RH for 24 hours.
DSC analysis was performed for the crystalline forms obtained from the tests to identify the final crystalline form.

Data set [3] can be described thus: Stability in solvent slurry system (interconversion of crystalline forms, final form identified by DSC). The following applies: for Final form (DSC peak): slurry; for Interconversion of crystalline form while stirred in solvent: stirred in the solvent for 24 hours, various solvents (summary of Table 4). On the procedure: 1) Measurement of Stability in Solvent Slurry System
In order to determine whether one crystalline form is interconverted into another crystalline form in a stirred solvent, a slurry test was performed in different solvents at room temperature.
First, an automated polyblock reactor was filled with each of the solvents listed in Table 4 below at room temperature (30±5° C.). […] Thereafter, an anti-solvent listed in Table 4 below (n-butanol or IPA) was added into the reactor for 30±15 minutes and stirred for 30±15 minutes until a transparent solution was obtained. The resultant was cooled to a temperature of 0±5° C., stirred for 2-3 hours, and then filtered at 0±5° C. The obtained material was dried at 60±5° C. for 3 to 4 hours in VTD, and then DSC analysis was performed for the obtained sample to identify the final crystalline form.
DSC analysis was performed for the obtained sample to identify the final crystalline form.

Data set [4] in a line: Solubility in methanol solvent. To be noted: in the methanol solvent; methanesulfonate.
Procedure: The solubility of each of Crystalline Forms 1 and 5 of the present invention was measured after being dissolved in the methanol solvent.
Data set [5] in a line: Stability in solvent slurry system (interconversion of crystalline forms, final form identified by DSC). The following applies: Dimethyl acetamide: EA, solvent 3 vol, anti-solvent 20 vol.
[6] abbreviates: Methanol: IPA, solvent 7 vol, anti-solvent 20 vol, methanesulfonate.
The mark [7] stands for this setting: Methanol: n-butanol, solvent 7 vol, anti-solvent 20 vol, methanesulfonate.
Setting [8] is: solvent system Acetonitrile 10 vol, no anti-solvent, methanesulfonate.
The mark [9] stands for this setting: solvent system Isopropyl alcohol (IPA) 10 vol, no anti-solvent, methanesulfonate.

For `O=C(NC[C@H]1CN(c2ccc(N3CCNC=N3)cc2)C(=O)O1)c1ccc(Cl)s1` [Crystalline Form 1, 5-chloro-N-({(5S)-2-oxo-3-[4-(5,6-dihydro-4H-[1,2,4]triazin-1-yl)phenyl]-1,3-oxazolidin-5-yl}methyl)thiophene-2-carboxamide methanesulfonate], the “Final form (DSC peak)” value in data set [1] is listed as “Crystalline Form 1 (178.0)”; in data set [3] (setting [6]) it was “Mixed crystalline forms”; in data set [3] (setting [7]), “Crystalline Form 5 (187.7)”; in data set [3] (setting [8]), “Mixed crystalline forms”; in data set [3] (solvent system Hexane 10 vol, no anti-solvent), “Mixed crystalline forms”; in data set [3] (setting [9]), “Crystalline Form 5 (187.0)”. Also, in data set [1], the “Stability at high temperature” value is “stable at high temperature”. In addition, the Final form result is “Crystalline Form 1” in data set [2] (Humidification, stored at 30° C. and 90% RH for 24 hours); “Crystalline Form 1” in data set [2] (Manual grinding with pestle and mortar); “Crystalline Form 1” in data set [2] (Multi-milling at 3,000 rpm). Moreover, the “Stability under physical stimulus” value in data set [2] was “stability without change of crystalline forms; also recorded: stable under physical stimulus”. Moreover, the “Interconversion of crystalline form while stirred in solvent” value in data set [3] (methanesulfonate) was “tends to convert into Crystalline Form 5”. The same molecule had a solubility in data set [4] of 70 mg/mL.

Regarding `O=C(NC[C@H]1CN(c2ccc(N3CCNC=N3)cc2)C(=O)O1)c1ccc(Cl)s1` [Crystalline Form 5, 5-chloro-N-({(5S)-2-oxo-3-[4-(5,6-dihydro-4H-[1,2,4]triazin-1-yl)phenyl]-1,3-oxazolidin-5-yl}methyl)thiophene-2-carboxamide methanesulfonate], the “Final form (DSC peak)” value in data set [5] was “Crystalline Form 5 (187.05)”; in data set [1], “Crystalline Form 5 (187.0)”; in data set [3] (setting [6]), “Crystalline Form 5 (186.80)”; in data set [3] (setting [7]), “Crystalline Form 5 (186.27)”; in data set [3] (setting [8]), “Crystalline Form 5 (186.88)”; in data set [3] (solvent system Ethyl acetate (EA) 10 vol, no anti-solvent), “Crystalline Form 5 (186.48)”. Further, the “Final form (DSC peak)” value is “Crystalline Form 5 (186.44)” in data set [3] (solvent system Heptane 10 vol, no anti-solvent); “Crystalline Form 5 (186.33)” in data set [3] (setting [9]); “Crystalline Form 5 (186.45)” in data set [3] (solvent system Methyl tert-butyl ether (MTBE) 10 vol, no anti-solvent); “Crystalline Form 5 (186.76)” in data set [3] (solvent system n-butanol 10 vol, no anti-solvent). The “Stability at high temperature” value in data set [1] was “stable at high temperature”. The “Stability under physical stimulus” value in data set [2] is “stability without change of crystalline forms; also recorded: stable under physical stimulus”. In addition, in data set [3] (methanesulfonate), the “Interconversion of crystalline form while stirred in solvent” value is “maintains the initial form”. The same molecule displayed a solubility in data set [4] of 30 mg/mL.

The values above are taken from US9988372B2, “Crystalline form of 5-chloro-N-({(5S)-2-oxo-3-[4-(5,6-dihydro-4H-[1,2,4]triazin-1-yl)phenyl]-1,3-oxazolidin-5-yl}methyl)thiophene-2-carboxamide methanesulfonate and pharmaceutical composition comprising same” (GREEN CROSS CORPORATION, priority 2014, dated 2018).
